From publication PMC10380584, “Functional Characterization of Pheromone Receptors in the Beet Webworm, Loxostege sticticalis (Lepidoptera: Pyralidae)” (Insects, 2023)
pEC50: −log10 of the molar value.

Test system: T1, LstiPR2/LstiORco
T1 construct: full-length LstiPR2 (ORF 1263 bp, printed 421 aa) co-expressed with LstiORco (cRNA 1:1) in Xenopus laevis oocytes, pT7Ts vector; cloned from male antennae; with Odorant receptor coreceptor
Experiment: two-electrode voltage clamp, Xenopus oocytes
Type: cell-based, Loxostege sticticalis
Details: agonist; co-expressed with LstiORco; holding potential -80 mV; Ringer's buffer pH 7.6
Text: two-electrode voltage clamp, Xenopus oocytes on LstiPR2/LstiORco | LstiPR2/LstiORco was sensitive to E11-14:OAc

pEC50: 4.90
SMILES: CC/C=C/CCCCCCCCCCOC(C)=O [E11-14:OAc, (E)-11-tetradecenyl acetate]
